Experimental data: patent US11912701B2, “Protein kinase inhibitors for promoting liver regeneration or reducing or preventing hepatocyte death” (HEPAREGENIX GMBH, priority 2018, dated 2024)

How the values were obtained:
MKK7 [1] = biological target: T1, MKK7 (Homo sapiens, UniProt O14733); experiment: 33PanQinase enzyme assay, MKK7; type: biochemical; set-up: purchased ProQinase GmbH, Freiburg, Germany (33PanQinase Assay Service); conditions: ratio IC50(MKK7)/IC50(MKK4)
T1 sequence (O14733 1-419): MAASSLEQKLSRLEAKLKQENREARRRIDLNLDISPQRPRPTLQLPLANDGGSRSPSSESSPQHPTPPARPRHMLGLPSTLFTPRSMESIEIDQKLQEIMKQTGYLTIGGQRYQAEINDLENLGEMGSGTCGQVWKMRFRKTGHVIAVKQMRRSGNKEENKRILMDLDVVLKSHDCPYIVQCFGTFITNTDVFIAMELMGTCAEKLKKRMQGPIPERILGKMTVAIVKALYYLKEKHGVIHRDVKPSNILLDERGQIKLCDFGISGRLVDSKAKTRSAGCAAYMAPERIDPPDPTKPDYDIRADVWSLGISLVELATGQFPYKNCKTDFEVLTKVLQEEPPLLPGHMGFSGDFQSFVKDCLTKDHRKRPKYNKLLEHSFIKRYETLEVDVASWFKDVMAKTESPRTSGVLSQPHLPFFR
How it was run: (§1)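 Off-target selectivity is the ratio IC50(off-target)/IC50(MKK4), with IC50 values from least-squares fitting and single-point data as % residual activity. Reactions of enzyme/substrate mix, ATP and compound ran 60 min at 30° C before H3PO4 stop; ^33P incorporation read on a scintillation counter.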

MKK4 [2] = biological target: T2, MKK4 (Homo sapiens, UniProt P45985); experiment: 33PanQinase enzyme assay, MKK4; type: biochemical; conditions: assay 'IC50'; read-out: Potency MKK4 (IC50)
T2 construct: purchased ProQinase GmbH, Freiburg, Germany (33PanQinase Assay Service)
T2 sequence (P45985 1-399): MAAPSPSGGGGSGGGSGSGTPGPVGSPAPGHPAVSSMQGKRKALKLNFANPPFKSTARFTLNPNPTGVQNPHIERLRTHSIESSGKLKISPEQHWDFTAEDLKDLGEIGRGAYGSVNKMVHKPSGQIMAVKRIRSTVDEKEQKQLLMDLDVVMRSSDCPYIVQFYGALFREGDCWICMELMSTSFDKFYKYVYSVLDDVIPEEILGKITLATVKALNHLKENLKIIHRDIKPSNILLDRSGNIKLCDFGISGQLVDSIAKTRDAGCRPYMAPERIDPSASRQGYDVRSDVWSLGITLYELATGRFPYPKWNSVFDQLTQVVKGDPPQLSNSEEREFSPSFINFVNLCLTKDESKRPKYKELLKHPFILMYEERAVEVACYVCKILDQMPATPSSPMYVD
How it was run: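 Inhibition measured as 33Pi transfer to substrate after a 60-min, 30 °C reaction, acid-stopped and scintillation-counted.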

BRaf [3] = biological target: T3, BRaf (Homo sapiens, UniProt P15056); experiment: 33PanQinase enzyme assay, BRaf; type: biochemical; conditions: ratio IC50(BRaf)/IC50(MKK4)
T3 construct: purchased ProQinase GmbH, Freiburg, Germany (33PanQinase Assay Service)
How it was run: as §1

MKK7 [4] = biological target: T1, MKK7; experiment: KINOMEscan competition binding assay, MKK7; set-up: M1/R419; host or cells: HEK-293; conditions: ratio PoC (off-target)/PoC (MKK4)
How it was run: (§2)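 DNA-tagged kinases expressed in HEK-293 cells compete between immobilized ligand on blocked beads and test compound at 100 nM; kinase retained on beads quantified by qPCR of the tag.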

JNK1 [5] = biological target: T4, JNK1 (Homo sapiens, UniProt P45983); experiment: 33PanQinase enzyme assay, JNK1; type: biochemical; set-up: purchased ProQinase GmbH, Freiburg, Germany (33PanQinase Assay Service); conditions: ratio IC50(JNK1)/IC50(MKK4)
How it was run: as §1
Target sequence in this assay (P45983 whole entry): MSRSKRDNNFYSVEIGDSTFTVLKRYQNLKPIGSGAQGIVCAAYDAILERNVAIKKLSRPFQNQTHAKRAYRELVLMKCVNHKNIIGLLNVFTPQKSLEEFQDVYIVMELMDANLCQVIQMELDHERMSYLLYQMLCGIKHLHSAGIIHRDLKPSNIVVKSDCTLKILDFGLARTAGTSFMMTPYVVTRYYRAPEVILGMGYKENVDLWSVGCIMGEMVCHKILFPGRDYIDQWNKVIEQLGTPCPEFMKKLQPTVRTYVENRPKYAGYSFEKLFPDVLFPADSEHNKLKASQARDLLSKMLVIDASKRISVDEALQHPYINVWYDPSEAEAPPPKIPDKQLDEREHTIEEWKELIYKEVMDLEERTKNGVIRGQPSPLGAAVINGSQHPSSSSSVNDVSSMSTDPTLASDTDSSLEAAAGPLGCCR

BRaf [6] = biological target: T3, BRaf; experiment: KINOMEscan competition binding assay, BRaf; conditions: ratio PoC (off-target)/PoC (MKK4)
How it was run: as §2

JNK1 [7] = biological target: T4, JNK1; experiment: KINOMEscan competition binding assay, JNK1; set-up: M1/Q384; host or cells: HEK-293; conditions: ratio PoC (off-target)/PoC (MKK4)
How it was run: as §2
Target sequence in this assay (P45983 1-384 isoform P45983-2): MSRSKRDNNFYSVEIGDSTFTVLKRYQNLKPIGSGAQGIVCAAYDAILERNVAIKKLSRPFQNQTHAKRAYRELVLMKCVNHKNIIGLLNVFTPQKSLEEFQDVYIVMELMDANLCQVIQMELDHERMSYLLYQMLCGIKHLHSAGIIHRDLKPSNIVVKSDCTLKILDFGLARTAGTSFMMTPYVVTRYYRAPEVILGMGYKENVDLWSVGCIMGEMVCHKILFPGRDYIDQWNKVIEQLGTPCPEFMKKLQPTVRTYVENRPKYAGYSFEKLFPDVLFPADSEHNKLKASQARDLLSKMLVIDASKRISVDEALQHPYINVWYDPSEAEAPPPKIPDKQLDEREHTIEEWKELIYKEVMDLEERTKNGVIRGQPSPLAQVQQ

MKK4 [8] = biological target: T5, MKK4 (Homo sapiens, UniProt P45985); experiment: KINOMEscan competition binding assay, MKK4; conditions: residual percent of control binding (PoC) at 100 nM
T5 construct: S84/D399; host or cells: HEK-293
T5 sequence (P45985 84-399): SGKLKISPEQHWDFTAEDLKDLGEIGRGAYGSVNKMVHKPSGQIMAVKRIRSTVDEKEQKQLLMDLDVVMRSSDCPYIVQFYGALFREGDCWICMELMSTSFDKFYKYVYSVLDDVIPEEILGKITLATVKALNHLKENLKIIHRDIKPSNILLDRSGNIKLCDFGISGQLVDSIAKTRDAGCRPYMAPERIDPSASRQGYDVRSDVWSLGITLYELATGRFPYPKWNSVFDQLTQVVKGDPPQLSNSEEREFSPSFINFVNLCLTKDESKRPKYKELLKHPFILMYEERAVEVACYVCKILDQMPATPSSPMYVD
How it was run: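 Tested at 100 nM and reported as percent of control binding (PoC). MKK4 was produced in HEK-293 cells and DNA-tagged. Displacement from ligand-coated, blocked beads was read by qPCR of eluted kinase.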

T3 sequence (P15056 whole entry, species assumed): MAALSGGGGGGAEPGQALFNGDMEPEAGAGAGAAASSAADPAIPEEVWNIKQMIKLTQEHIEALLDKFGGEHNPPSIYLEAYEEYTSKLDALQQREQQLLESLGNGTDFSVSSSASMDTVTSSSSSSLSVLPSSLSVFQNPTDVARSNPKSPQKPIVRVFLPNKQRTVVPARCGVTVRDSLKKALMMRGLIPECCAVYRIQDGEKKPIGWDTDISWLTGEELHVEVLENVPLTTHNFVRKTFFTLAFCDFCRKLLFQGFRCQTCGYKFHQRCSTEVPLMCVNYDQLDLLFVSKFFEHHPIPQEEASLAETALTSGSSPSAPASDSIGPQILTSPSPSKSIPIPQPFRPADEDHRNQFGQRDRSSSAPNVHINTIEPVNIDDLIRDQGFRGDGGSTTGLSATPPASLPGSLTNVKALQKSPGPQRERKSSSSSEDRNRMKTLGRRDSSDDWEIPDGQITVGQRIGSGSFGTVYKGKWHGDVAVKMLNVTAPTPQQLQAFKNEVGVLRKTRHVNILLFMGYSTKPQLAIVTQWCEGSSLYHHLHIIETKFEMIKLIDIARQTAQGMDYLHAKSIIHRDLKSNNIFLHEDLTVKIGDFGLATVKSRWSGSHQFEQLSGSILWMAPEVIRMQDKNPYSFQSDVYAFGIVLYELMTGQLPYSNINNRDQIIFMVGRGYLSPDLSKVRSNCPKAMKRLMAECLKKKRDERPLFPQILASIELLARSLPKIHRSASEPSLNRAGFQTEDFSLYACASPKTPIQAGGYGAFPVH

Compound	Selectivity IVIKK7, IC50(off-target)/IC50(MKK4) (MKK7 [1])	IC50 (MKK4 [2]) [nM]	Selectivity Braf, IC50(off-target)/IC50(MKK4) (BRaf [3])	selectivity based on % Ctrl @100 nM vs. MKK7 (MKK7 [4])	Selectivity JNK1, IC50(off-target)/IC50(MKK4) (JNK1 [5])	selectivity based on % Ctrl @100 nM vs. Braf (BRaf [6])	selectivity based on % Ctrl @100 nM vs. JNK1 (JNK1 [7])	MKK4 [% Ctrl @ 100 nM (MKK4 [8])
O=C(c1ccc(F)c(NS(=O)(=O)CCC(F)(F)F)c1F)c1c[nH]c2ncc(-c3cnc(N4CCCC4)nc3)cc12 [Example 179, N-(2,6-difluoro-3-(5-(2-(pyrrolidin-1-yl)pyrimidin-5-yl)-1H-pyrrolo[2,3-b]pyridine-3-carbonyl)phenyl)-3,3,3-trifluoropropane-1-sulfonamide]	+++ (IC50(off-target)/IC50(MKK4) > 100)	< 100	+++ (IC50(off-target)/IC50(MKK4) > 100)	+++ (Ratio > 100)	+++ (IC50(off-target)/IC50(MKK4) > 100)	+++ (Ratio > 100)	+++ (Ratio > 100)	+++ (PoC < 1)
O=C(c1ccc(F)c(NS(=O)(=O)CCC(F)(F)F)c1F)c1c[nH]c2ncc(-c3cnc(N4CCC4)nc3)cc12 [Example 180, N-(3(5-(2-(azetidin-1-yl)pyrimidin-5-yl)-1H-pyrrolo[2,3-b]pyridine-3-carbonyl)-2,6-difluorophenyl)-3,3,3-trifluoropropane-1-sulfonamide]	+++ (IC50(off-target)/IC50(MKK4) > 100)	< 100	+++ (IC50(off-target)/IC50(MKK4) > 100)	+++ (Ratio > 100)	+++ (IC50(off-target)/IC50(MKK4) > 100)	+++ (Ratio > 100)	+++ (Ratio > 100)	+++ (PoC < 1)
O=C(c1ccc(F)c(NS(=O)(=O)CCC(F)(F)F)c1F)c1c[nH]c2ncc(-c3cnc(N4CCCCC4)nc3)cc12 [Example 181, N-(2,6-difluoro-3-(5-(2-(piperidin-1-yl)pyrimidin-5-yl)-1H-pyrrolo[2,3-b]pyridine-3-carbonyl)phenyl)-3,3,3-trifluoropropane-1-sulfonamide]	+++ (IC50(off-target)/IC50(MKK4) > 100)	100 to 1000	+++ (IC50(off-target)/IC50(MKK4) > 100)	+++ (Ratio > 100)	++ (100 ≥ IC50(off-target)/IC50(MKK4) > 10)	+++ (Ratio > 100)	+++ (Ratio > 100)	+++ (PoC < 1)
O=C(c1ccc(F)c(NS(=O)(=O)CCC(F)(F)F)c1F)c1c[nH]c2ncc(-c3cnc(NC4CC4)nc3)cc12 [Example 182]	+++ (IC50(off-target)/IC50(MKK4) > 100)	< 100	+++ (IC50(off-target)/IC50(MKK4) > 100)	+++ (Ratio > 100)	+++ (IC50(off-target)/IC50(MKK4) > 100)	+++ (Ratio > 100)	+++ (Ratio > 100)	+++ (PoC < 1)
CCCS(=O)(=O)Nc1c(F)ccc(C(=O)c2c[nH]c3ncc(-c4cnc(C(F)(F)F)nc4)cc23)c1F [Example 184, N-(2,6-difluoro-3-(5-(2-(trifluoromethyl)pyrimidin-5-yl)-1H-pyrrolo[2,3-b]pyridine-3-carbonyl)phenyl)propane-1-sulfonamide]	+++ (IC50(off-target)/IC50(MKK4) > 100)	100 to 1000	+++ (IC50(off-target)/IC50(MKK4) > 100)	+++ (Ratio > 100)	++ (100 ≥ IC50(off-target)/IC50(MKK4) > 10)	+++ (Ratio > 100)	+++ (Ratio > 100)	+++ (PoC < 1)
CCCS(=O)(=O)Nc1c(F)ccc(C(=O)c2c[nH]c3ncc(-c4cnc(Cl)cn4)cc23)c1F [Example 211, N-(3-(5-(5-chloropyrazin-2-yl)-1H-pyrrolo[2,3-b]pyridine-3-carbonyl)-2,6-difluorophenyl)propane-1-sulfonamide]	+++ (IC50(off-target)/IC50(MKK4) > 100)	100 to 1000	+++ (IC50(off-target)/IC50(MKK4) > 100)	+++ (Ratio > 100)	++ (100 ≥ IC50(off-target)/IC50(MKK4) > 10)	+++ (Ratio > 100)	+++ (Ratio > 100)	+++ (PoC < 1)
CCCS(=O)(=O)Nc1c(F)ccc(C(=O)c2c[nH]c3ncc(-c4ccc(C)nc4)cc23)c1F [Example 229, N-(2,6-difluoro-3-(5-(6-methylpyridin-3-yl)-1H-pyrrolo[2,3-b]pyridine-3-carbonyl)phenyl)propane-1-sulfonamide]	+++ (IC50(off-target)/IC50(MKK4) > 100)	< 100	+++ (IC50(off-target)/IC50(MKK4) > 100)	+++ (Ratio > 100)	+++ (IC50(off-target)/IC50(MKK4) > 100)	+++ (Ratio > 100)	+++ (Ratio > 100)	+++ (PoC < 1)
CCCS(=O)(=O)Nc1c(F)ccc(C(=O)c2c[nH]c3ncc(-c4ccc(C(F)(F)F)nc4)cc23)c1F [Example 230, N-(2,6-difluoro-3-(5-(6-(trifluoromethyl)pyridin-3-yl)-1H-pyrrolo[2,3-b]pyridine-3-carbonyl)phenyl)propane-1-sulfonamide]	+++ (IC50(off-target)/IC50(MKK4) > 100)	< 100	+++ (IC50(off-target)/IC50(MKK4) > 100)	+++ (Ratio > 100)	+++ (IC50(off-target)/IC50(MKK4) > 100)	+++ (Ratio > 100)	+++ (Ratio > 100)	+++ (PoC < 1)
